According to US20020169101A1, “Treatment of sexual dysfunction” (priority 1999, published 2002):

How the values were obtained:
[1] = test system: female rat sexual receptivity; assay: Female rat sexual receptivity test (lordosis quotient); type: in vivo; conditions: for lordosis quotient (LQ) vs LQ before administration: Compound (2) 10-100 mg/kg oral in PEG200, 1 h, quinelorane 6.25 μg/kg s.c., 90 min (FIG. 21)
Method: (§1) Ovariectomised adult female Sprague Dawley rats (180-200 g, from Charles River) were housed in groups of 6 in a reversed lighting system of 12 h light:dark (lights off 7.00-19.00 h). Two weeks after ovariectomy they were used for sexual activity tests. The experiments started at least 5 h into the dark period.
Compound (1) was dissolved in 100% β-cyclodextrin and then diluted with saline to a final solution of 50% 2-hydroxypropyl-β-cyclodextrin. It was administered intraperitoneally (i.p.) at a dose of 10 mg/kg, in a dosing volume of 1 ml/kg. Quinelorane (6.25 μg/kg) was dissolved in water and administered s.c. as positive control. Forty eight hours before testing, ovariectomised female rats (as described above), were primed with 5 μg oestradiol benzoate dissolved in corn oil and injected subcutaneously. […] The females were placed with a series of vigorous male rats and subjected to 10 mounts.
The lordotic response of the animal was recorded and expressed as a percentage of the mounts (i.e. lordosis quotient, LQ), as previously described. Animals showing LQ<20 were considered non-receptive and were included in the study. Each rat was tested prior to administration of the compound and then tested similarly post-injection. The pre-treatment times were 1 h for Compound (1) and vehicle (50% β-cyclodextrin, i.p.) or 90 min for quinelorane.
The above compound was dissolved in PEG200 vehicle and administered orally. Quinelorane dihydrochloride (LY 163,502, 6.25 μg/kg) was dissolved in water and administered subcutaneously (s.c.), as a positive control. Both compounds were administered in a 1 ml/kg volume.
Forty eight hours before tests, the animals were primed with 5 μg oestradiol benzoate (Sigma Chemical. Co. Ltd., UK) dissolved in corn oil and injected subcutaneously. The females were placed with a series of vigorous male rats and subjected to 10 mounts. The lordotic response of the animal was recorded and expressed as a percentage of the mounts (i.e. lordosis quotient, LQ). […] Animals showing higher LQ were not included in the study. […]

[2] = test system: female rat sexual proceptivity; assay: Female rat sexual proceptivity test (time investigating male vs female stimulus); type: in vivo
Method: as §1
Tests were carried out in a circular arena of 90 cm diameter, surrounded by a 30 cm high wall. Two small cages with wire-mesh front (15×15 cm) are fixed into the wall such that the front of the cage is <> with the wall and the 2 cages are opposite each other. They contained two stimuli animals: an intact sexually experienced male and a receptive female (ovariectomised, primed with 5 μg oestradiol benzoate dissolved in corn oil and injected subcutaneously 48 hours before the test and with 0.5 mg of progesterone four hours before the test). Sexually naive test and control animals were used. Forty eight hours before the tests, both the test and control animals were primed with 5 μg oestradiol benzoate. For animals used as positive controls, progesterone (0.5 mg/0.1 ml) was dissolved in corn oil and administered subcutaneously (s.c.), 4 h before the test. Test and control animals were introduced one at a time for 10 minute periods into the arena. During the 10 min test, the time that the test or positive control animal spent investigating each stimulus animal was noted. The arena was thoroughly cleaned between animals. The position of the male/female stimuli boxes was randomised between animals, in order to avoid place preference. The difference in the percentage of time spent investigating the male minus the female stimuli was calculated, out of the total time spent investigating stimuli animals.
Compound (1) was dissolved in 100% β-cyclodextrin and then diluted with saline to a final solution of 50% 2-hydroxypropyl-β-cyclodextrin. It was administered intraperitoneally (i.p.) at doses of 3 and 10 mg/kg, in a dosing volume of 1 ml/kg, 1 h before tests. Progesterone (0.5 mg/0.1 ml) was dissolved in corn oil and administered subcutaneously (s.c.), 4 h before test, as a positive control.
Ovariectomised adult female Sprague Dawley rats (180-200 g) were housed in groups of 5 in a reversed lighting system of 12 h light:dark (lights off 5.00-17.00 h). They were used for the experiments at least two weeks after ovariectomy. Forty eight hours before tests, the animals were primed with oestradiol benzoate (5 μg/[…] in corn oil, s.c.). On day 1, progesterone (0.5 mg/0.1 ml, in corn oil, s.c.) was administered to one of the groups 4 h before tests, as a positive control. Compound (1) (15 mg/kg, i.p.) was administered in 50% 2-hydroxypropyl-β-cyclodextrin, 1 h before tests. The test lasted 10 minutes and was carried out as described before. The difference in the percentage of time spent investigating the male minus the female stimuli was calculated, out of the total time spent investigating stimuli animals. Animals were submitted to a test on day 1 and on day 15. From day 2 to 14 the Compound (1) group received a daily injection of the compound (15 mg/kg, i.p.), while both the vehicle and the progesterone groups received an injection of vehicle. On day 15 the test took place again, as described for day 1.
Ovariectomised female rats (Sprague Dawley, obtained from Charles River, UK) were stereotaxically implanted (coordinates 0.89 mm behind Bregma, 1.3 mm lateral and 2.5 mm vertical) with stainless steel cannulae (6 mm long, O.D. 0.75 mm), held in place with dental cement. Animals were housed in groups of three and returned to a reversed lighting system of 12 h light:dark (lights off 5.00-17.00 h). Correct placement of the cannulae was assessed post-mortem. Rats were used for tests two weeks after ovariectomy (one week after cannulation). The experiments started at least 5 h into the dark period. […]

[3] = biological target: T1, human NMB receptor (BB1) (Homo sapiens, UniProt P28336); assay: BB1 binding assay ([125I][Tyr4]bombesin displacement, CHO-K1 membranes); conditions: Table 1, human NMB receptor binding affinity; Ki from IC50 by Cheng-Prusoff; read-out: NMB Ki
T1 construct: expressed in transfected cells; membranes prepared from the cells
Method in brief: (§2)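 Membranes from CHO-K1 cells stably expressing human NMB (BB1) or GRP (BB2) receptors, in 50 mM Tris-HCl pH 7.4 with BSA and protease inhibitors, incubated with [125I][Tyr4]bombesin (<0.1 nM) for 60 min (BB1) or 90 min (BB2). Nonspecific binding defined with 1 μM bombesin; filtration and gamma counting; IC50 converted to Ki by Cheng-Prusoff.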

[4] = biological target: T2, human GRP receptor (BB2) (Homo sapiens, UniProt P30550); assay: BB2 binding assay ([125I][Tyr4]bombesin displacement, CHO-K1 membranes); conditions: Table 1, human GRP receptor binding affinity; Ki from IC50 by Cheng-Prusoff; read-out: GRP Kj
T2 construct: expressed in transfected cells; membranes prepared from the cells
Method in brief: as §2

T2 sequence (P30550 whole entry): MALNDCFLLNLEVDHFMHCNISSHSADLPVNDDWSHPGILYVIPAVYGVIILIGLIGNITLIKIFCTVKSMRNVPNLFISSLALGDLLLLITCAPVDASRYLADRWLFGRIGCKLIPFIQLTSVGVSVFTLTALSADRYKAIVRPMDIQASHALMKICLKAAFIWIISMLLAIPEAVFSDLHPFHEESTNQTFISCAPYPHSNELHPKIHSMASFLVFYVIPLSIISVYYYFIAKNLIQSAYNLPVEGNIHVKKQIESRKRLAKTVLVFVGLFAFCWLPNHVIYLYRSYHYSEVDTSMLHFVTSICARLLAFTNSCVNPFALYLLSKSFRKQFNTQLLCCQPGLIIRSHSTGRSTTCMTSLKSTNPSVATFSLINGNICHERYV
T1 sequence (P28336 whole entry): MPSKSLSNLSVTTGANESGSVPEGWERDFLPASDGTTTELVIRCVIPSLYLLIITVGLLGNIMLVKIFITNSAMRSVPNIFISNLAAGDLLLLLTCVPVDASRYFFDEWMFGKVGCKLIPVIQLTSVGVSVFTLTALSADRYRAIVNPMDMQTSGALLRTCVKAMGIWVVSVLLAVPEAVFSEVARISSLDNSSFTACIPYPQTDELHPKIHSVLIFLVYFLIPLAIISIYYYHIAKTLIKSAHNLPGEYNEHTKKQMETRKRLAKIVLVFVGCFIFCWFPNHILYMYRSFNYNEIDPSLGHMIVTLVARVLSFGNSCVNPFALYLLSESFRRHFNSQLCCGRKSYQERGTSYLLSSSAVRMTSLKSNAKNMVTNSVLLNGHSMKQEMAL

SMILES | lordosis quotient (LQ) vs LQ before administration [1] | MED for increase of lordosis quotient (LQ) ([1]; single oral administration, 10-100 mg/kg in PEG200, 1 h after administration) | percentage of time spent investigating the male stimulus ([2]; oral, 30-100 mg/kg in PEG 200, 1 h before test (FIG. 19)) | percentage of time spent investigating the male stimulus ([2]; p.o., 3-30 mg/kg in 0.5% methyl cellulose, 1 h before test (FIG. 20)) | melting point | Ki [3] | Ki [4]
COc1ccc(C2(CNC(=O)[C@](C)(Cc3c[nH]c4ccccc34)Nc3nc(-c4ccc([N+](=O)[O-])cc4)co3)CCCCC2)nc1 [Example 9, (S)-3-(1H-Indol-3-yl)-N-[1-(5-methoxy-pyridin-2-yl)-cyclohexylmethyl]-2-methyl-2-[4-(4-nitro-phenyl)-oxazol-2-ylamino]-propionamide] | dose-dependently (10-100 mg/kg) increased the LQ | 100 mg/kg | dose-dependently (30-100) increased the percentage of time spent investigating the male stimulus | dose-dependently (3-30 mg/kg) increased the percentage of time spent investigating the male stimulus | 100 to 105 °C | 4 nM | 24 nM
CCCN1CCC[C@@H]2Cc3nc(N)ncc3C[C@H]21 [quinelorane, reference compound] | significantly (P<0.01) increased the LQ | – | – | – | – | – | –
